Data from patent publication US11130766B2, “Deuterated thienopiperidine derivatives, manufacturing method, and application thereof” (JIANGSU TASLY DIYI PHARMACEUTICAL CO., LTD., priority 2015, dated 2021).
Like-named read-outs stand apart in the source and are kept apart here. Marks after values point to notes of the source that are not given here.

Key:
esterase [1] = details: rat whole blood, 37° C., 30 μg/mL
Procedure: The hydrolysis rates of formula TSD-6 and clopidogrel bisulfate in the rat whole blood were determined by employing the in vitro incubation method.
3 mL of the rat fresh whole blood was taken and placed in a glass test tube. 30 μg/mL of formula TSD-6 and clopidogrel bisulfate (prepared with saline) were added, with 3 parallel tests for each group. The test tubes were shocked at a constant temperature of 37° C., 100 μL of the mixture was taken out at fixed time points of 10 min, 20 min, 30 min, 40 min, 50 min, 60 min, 70 min, 80 min, 90 min, 100 min, 110 min, and 120 min, into which 900 μL of methanol was added to stop the reaction immediately, then 100 μL methanol/water (1:1, v/v) and 100 μL internal standard (diazepam, 100 ng/mL) were added sequentially. The mixture was centrifuged at 13000 rpm at low temperature for 10 min, the supernatant was transferred into another EP tube, and 20 μL of the supernatant was taken for sample injection.

Rat Tail Bleeding Model = details: SD rat, 10 mg/kg oral gavage, 4 h after administration
Procedure: genus, strain SD rat, • Provider: Slac • Weight: 250-350 g • Sex: male • Animal number: 30
Experimental Method: • The animals were allowed adapt to the environment after arrival for 1 week and fasted for 16 hours prior to the experiment. • The tail bleeding time started to be recorded 2 h after oral administration of the test compounds and 4 h after oral administration of clopidogrel. • The rats were anesthetized with pentobarbital sodium (50 mg/kg, ip) 10 min prior to the recording of the tail bleeding time, after the rat was completely anesthetized and reaching the detection time, the tail was cut at 1.3 mm from the rat tail-tip with a scissor and perpendicularly immerged into a saline at 37° C. Timing recording was not started until the blood flow appeared. • The timing recording was stopped when the bleeding time interval was longer than 20 seconds. The maximum observation time for the blood flow was set for 40 minutes. If it was longer than 40 minutes, the timing recording was stopped and the time was recorded as 40 minutes.

[2] = test system: ADP induced platelet aggregation; test: ADP induced platelet aggregation, maximum aggregation rate after administration to rats; type: in vivo, Wistar male rats; details: ADP induced, rats, 3 mg/kg, blood drawn 2 hours after administration
Procedure: Addition of small dose of ADP (concentration less than 0.9 μmol/L) into the platelet suspension could lead to rapid platelet aggregation, followed by quick disaggregation; if moderate dose of ADP (about 1.0 μmol/L) was added, then the second irreversible aggregation phase appeared not long after the end of the first aggregation phase and the disaggregation. The maximum aggregation rate of the irreversible aggregation phase was used to evaluate the effect of the test samples on the function of blood coagulation.
Animals: Wistar male rats, weighing 230-250 g, were purchased from Vital River Laboratory Animal Technology Co., Ltd.
Reagent: ADP, Sigma Corporation.
Test samples: 16 test samples were provided by the Tasly Group; referred to China patent application 201310428052.4 for manufacturing method of TSC-1˜4 and TSC-6˜9.
Dose of administration: the test samples were suspended with 0.25% CMC, administered 3 mg/kg weight, volume of administration: 2 mL.
2 Hours after administration, the rats were anesthetized with pentobarbital sodium, and blood was drawn from the abdominal aorta, anticoagulated with sodium citrate with a ratio of 1:9, and centrifuged to obtain the platelet-rich plasma and platelet-poor plasma, with the mixed ratio of the platelet-poor plasma to platelet-rich plasma=3:1.

[3] = test system: Rat Arteriovenous Thrombus Loop Model; details: SD rat, 10 mg/kg oral gavage, 4 h after administration, 15 min circulation
Text: genus, strain: SD rat, • Provider: Slac • Weight: 250-350 g • Sex: male • Animal number: 30
Apparatus and Materials • Swab, dry tampon, alcohol pad, anerdian tampon. • Surgical scissor, ophthalmic forceps, hemostatic forceps, microsurgical scissor, microsurgical forceps, artery clamps. • 3-0 surgical suture, thick PE tube (I.D.*O.D.=1.14 mm*1.63 mm, 8 cm long), think PE tube (I.D.*O.D.=0.72 mm*1.22 mm, 6 cm long). • Surgical board, binding rope, timer, precise electronic balance, weighing paper. • Syringe, normal saline.
7. Experimental Method • After arrival, the animals were let adapt to the environment for 1 week and fasted for 16 hours prior to the test. • The arteriovenous blood loop circulation was started 2 h after oral administration of the test compounds and 4 h after oral administration of clopidogrel. • The rats were anesthetized with pentobarbital sodium (50 mg/kg, ip) 15 min before the arteriovenous blood loop circulation was started. • The left external jugular vein and the right carotid artery were separated and inserted with thin PE tubes respectively. • Two PE tubes were connected with another thick PE tube with a length of 8 cm to form a circulation passage. There's a 6 cm surgical suture (3-0) in the thick PE tube. • 15 min after the circulation passage was opened, the blood flow was blocked, the filament was taken out and weighed after the blood was sucked out. The thrombus weight was obtained after subtraction of the weight of the filament itself.

esterase [4] = test: Esterase hydrolysis rates of TSD-8 and clopidogrel bisulfate, in vitro incubation in rat whole blood; type: in vitro ADME; set-up: sample test results (concentration) Num. 1 / sample test results (concentration) Num. 2 / sample test results (concentration) Num. 3 / sample test results (concentration) Mean: unit not given here; details: rat whole blood, 37° C., 30 μg/mL

COC(=O)[C@H](c1ccccc1Cl)N1CCc2sccc2C1 [clopidogrel, Clopidogrel, reference compound]
time at which the concentration in the whole blood was lower than the quantitative lower limit (esterase [1]): around 50 min | sample test results (concentration) Mean (esterase [1]; 10 min): 211.0 | sample test results (concentration) Num. 1 (esterase [1]; 10 min): 238 | sample test results (concentration) Num. 2 (esterase [1]; 10 min): 221 | sample test results (concentration) Num. 3 (esterase [1]; 10 min): 174 | sample test results (concentration) Mean (esterase [1]; 20 min): 89.6 | sample test results (concentration) Num. 1 (esterase [1]; 20 min): 66.2 | sample test results (concentration) Num. 2 (esterase [1]; 20 min): 128 | sample test results (concentration) Num. 3 (esterase [1]; 20 min): 74.7 | sample test results (concentration) Mean (esterase [1]; 30 min): 35.1 | sample test results (concentration) Num. 1 (esterase [1]; 30 min): 24.1 | sample test results (concentration) Num. 2 (esterase [1]; 30 min): 57.2 | sample test results (concentration) Num. 3 (esterase [1]; 30 min): 24.1 | sample test results (concentration) Mean (esterase [1]; 40 min): 11.2 | sample test results (concentration) Num. 1 (esterase [1]; 40 min): 6.27 | sample test results (concentration) Num. 2 (esterase [1]; 40 min): 15.1 | sample test results (concentration) Num. 3 (esterase [1]; 40 min): 19.3 | sample test results (concentration) Mean (esterase [1]; 50 min): 0.70 | sample test results (concentration) Num. 1 (esterase [1]; 50 min): 0.449 | sample test results (concentration) Num. 2 (esterase [1]; 50 min): 1.12 | sample test results (concentration) Num. 3 (esterase [1]; 50 min): 0.518 | sample test results (concentration) Mean (esterase [1]; 60 min): 0.62 | sample test results (concentration) Num. 1 (esterase [1]; 60 min): 0.417 | sample test results (concentration) Num. 2 (esterase [1]; 60 min): 1.45 | sample test results (concentration) Num. 3 (esterase [1]; 60 min): 0 | sample test results (concentration) Mean (esterase [1]; 90 min): 0 | sample test results (concentration) Num. 1 (esterase [1]; 90 min): 0 | sample test results (concentration) Num. 2 (esterase [1]; 90 min): 0 | sample test results (concentration) Num. 3 (esterase [1]; 90 min): 0 | sample test results (concentration) Mean (esterase [1]; 100 min): 0 | sample test results (concentration) Num. 1 (esterase [1]; 100 min): 0 | sample test results (concentration) Num. 2 (esterase [1]; 100 min): 0 | sample test results (concentration) Num. 3 (esterase [1]; 100 min): 0 | sample test results (concentration) Mean (esterase [1]; 110 min): 0 | sample test results (concentration) Num. 1 (esterase [1]; 110 min): 0 | sample test results (concentration) Num. 2 (esterase [1]; 110 min): 0 | sample test results (concentration) Num. 3 (esterase [1]; 110 min): 0 | sample test results (concentration) Mean (esterase [1]; 120 min): 0 | sample test results (concentration) Num. 1 (esterase [1]; 120 min): 0 | sample test results (concentration) Num. 2 (esterase [1]; 120 min): 0 | sample test results (concentration) Num. 3 (esterase [1]; 120 min): 0 | Tail Bleeding Time (s) (Rat Tail Bleeding Model): 1896*** s | Maximum Platelet Aggregation Rate [2]: 46.77 ± 8.28 | Thrombus (mg) [3]: 20.1** mg | time at which the concentration in the whole blood was lower than the quantitative lower limit (esterase [4]): around 50 min | sample test results (concentration) Mean (esterase [4]; 10 min): 199.50 | sample test results (concentration) Num. 1 (esterase [4]; 10 min): 232 | sample test results (concentration) Num. 3 (esterase [4]; 10 min): 167 | sample test results (concentration) Mean (esterase [4]; 20 min): 90.53 | sample test results (concentration) Num. 1 (esterase [4]; 20 min): 64.1 | sample test results (concentration) Num. 2 (esterase [4]; 20 min): 131 | sample test results (concentration) Num. 3 (esterase [4]; 20 min): 76.5 | sample test results (concentration) Mean (esterase [4]; 30 min): 34.07 | sample test results (concentration) Num. 1 (esterase [4]; 30 min): 20.6 | sample test results (concentration) Num. 2 (esterase [4]; 30 min): 53 | sample test results (concentration) Num. 3 (esterase [4]; 30 min): 28.6 | sample test results (concentration) Mean (esterase [4]; 40 min): 11.82 | sample test results (concentration) Num. 1 (esterase [4]; 40 min): 6.46 | sample test results (concentration) Num. 2 (esterase [4]; 40 min): 14.3 | sample test results (concentration) Num. 3 (esterase [4]; 40 min): 14.7 | sample test results (concentration) Mean (esterase [4]; 50 min): 0.62 | sample test results (concentration) Num. 1 (esterase [4]; 50 min): 0.479 | sample test results (concentration) Num. 2 (esterase [4]; 50 min): 1.01 | sample test results (concentration) Num. 3 (esterase [4]; 50 min): 0.359 | sample test results (concentration) Mean (esterase [4]; 60 min): 0.53 | sample test results (concentration) Num. 1 (esterase [4]; 60 min): 0.347 | sample test results (concentration) Num. 2 (esterase [4]; 60 min): 1.24 | sample test results (concentration) Num. 3 (esterase [4]; 60 min): 0 | sample test results (concentration) Mean (esterase [4]; 90 min): 0.00 | sample test results (concentration) Num. 1 (esterase [4]; 90 min): 0 | sample test results (concentration) Num. 2 (esterase [4]; 90 min): 0 | sample test results (concentration) Num. 3 (esterase [4]; 90 min): 0 | sample test results (concentration) Mean (esterase [4]; 100 min): 0.00 | sample test results (concentration) Num. 1 (esterase [4]; 100 min): 0 | sample test results (concentration) Num. 2 (esterase [4]; 100 min): 0 | sample test results (concentration) Num. 3 (esterase [4]; 100 min): 0 | sample test results (concentration) Mean (esterase [4]; 110 min): 0.00 | sample test results (concentration) Num. 1 (esterase [4]; 110 min): 0 | sample test results (concentration) Num. 2 (esterase [4]; 110 min): 0 | sample test results (concentration) Num. 3 (esterase [4]; 110 min): 0 | sample test results (concentration) Mean (esterase [4]; 120 min): 0.00 | sample test results (concentration) Num. 1 (esterase [4]; 120 min): 0 | sample test results (concentration) Num. 2 (esterase [4]; 120 min): 0 | sample test results (concentration) Num. 3 (esterase [4]; 120 min): 0
